Assays:
TRPM8 = target: T1, TRPM8 (Homo sapiens, UniProt Q7Z2W7); test: Ca2+ fluorimetry assay in CHO cell line stably expressing TRPM8; format: cell-based; details: CHO cells stably expressing TRPM8; for activation at 10 µM: Fluo-4NW fluorescence; for EC50: concentrations 0.1, 1, 10 and 100 μM, sigmoid fit
T1 construct: expressed in transfected cells
Experimental: The cells were cultured in monolayer in EMEM medium (Earle's minimum essential medium with Earle's salts, Invitrogen) supplemented with 10% foetal bovine serum (FBS), 2 mM L-glutamine, 1% penicillin-streptomycin solution and […] of the Geneticin antibiotic (Sigma) and kept at 37° C. in a humidified atmosphere with 5% of CO2. Ca^2+ fluorimetry assays were carried out in order to determine the efficacy of the compounds on the TRPM8 channels. The cells were seeded in 96-well plates with a density of 25,000 cells per well. Three days after seeding, the medium was removed and 100 μl of the Fluo-4NW fluorescent probe from Invitrogen was added with a concentration of 5 μM in the presence of 0.02% pluronic acid; after 60 minutes of incubation at 37° C. in a humidified atmosphere with 5% of CO2, the fluorescence was measured in a microplate reader (POLARstar Omega) with a configuration of 485 nm for the excitation and 520 nm for the emission, during 20 cycles. […] In the wells that were used as negative controls, 1 μl of AMTB [N-(3-aminopropyl)-2-[(3-methylphenyl)methoxy]-N-(2-thienylmethyl)benzamide] was added to obtain a final concentration of 10 μM, to block the TRPM8 channels.
The amplitudes of the Ca^2+ increases, caused by the stimulation of the cells with the compounds, were measured by subtracting the basal fluorescence signal (mean intensity obtained before adding the compound) from the fluorescence peak obtained after applying the compounds. The obtained results were adjusted to a sigmoid function using the software suite of the GraphPad Prism computer program.

guinea pig = test: In vivo tear secretion measured using phenol red threads after ocular instillation; details: instilled ocularly at 200 μM, phenol red thread 30 seconds
Text: The in vivo activity of the selected TRPM8 activating compounds (TZM-7) has been assessed in an animal model following the protocol described in Acosta M C et al., Invest Ophthalmol Vis Sci 2014 (Corneal sensory nerve activity in an experimental model of UV keratitis. Acosta M et al., Invest Ophthalmol Vis Sci May 1; 55(6):3403-12). […] Tear secretion can be measured using phenol red threads (Zone-Quick, Menicon, Nagoya, Japan) that are applied to the nasal edge of the lower eyelid for 30 seconds (after that time, the distance of the red-dyed thread is measured in mm).

T1 sequence (Q7Z2W7 whole entry): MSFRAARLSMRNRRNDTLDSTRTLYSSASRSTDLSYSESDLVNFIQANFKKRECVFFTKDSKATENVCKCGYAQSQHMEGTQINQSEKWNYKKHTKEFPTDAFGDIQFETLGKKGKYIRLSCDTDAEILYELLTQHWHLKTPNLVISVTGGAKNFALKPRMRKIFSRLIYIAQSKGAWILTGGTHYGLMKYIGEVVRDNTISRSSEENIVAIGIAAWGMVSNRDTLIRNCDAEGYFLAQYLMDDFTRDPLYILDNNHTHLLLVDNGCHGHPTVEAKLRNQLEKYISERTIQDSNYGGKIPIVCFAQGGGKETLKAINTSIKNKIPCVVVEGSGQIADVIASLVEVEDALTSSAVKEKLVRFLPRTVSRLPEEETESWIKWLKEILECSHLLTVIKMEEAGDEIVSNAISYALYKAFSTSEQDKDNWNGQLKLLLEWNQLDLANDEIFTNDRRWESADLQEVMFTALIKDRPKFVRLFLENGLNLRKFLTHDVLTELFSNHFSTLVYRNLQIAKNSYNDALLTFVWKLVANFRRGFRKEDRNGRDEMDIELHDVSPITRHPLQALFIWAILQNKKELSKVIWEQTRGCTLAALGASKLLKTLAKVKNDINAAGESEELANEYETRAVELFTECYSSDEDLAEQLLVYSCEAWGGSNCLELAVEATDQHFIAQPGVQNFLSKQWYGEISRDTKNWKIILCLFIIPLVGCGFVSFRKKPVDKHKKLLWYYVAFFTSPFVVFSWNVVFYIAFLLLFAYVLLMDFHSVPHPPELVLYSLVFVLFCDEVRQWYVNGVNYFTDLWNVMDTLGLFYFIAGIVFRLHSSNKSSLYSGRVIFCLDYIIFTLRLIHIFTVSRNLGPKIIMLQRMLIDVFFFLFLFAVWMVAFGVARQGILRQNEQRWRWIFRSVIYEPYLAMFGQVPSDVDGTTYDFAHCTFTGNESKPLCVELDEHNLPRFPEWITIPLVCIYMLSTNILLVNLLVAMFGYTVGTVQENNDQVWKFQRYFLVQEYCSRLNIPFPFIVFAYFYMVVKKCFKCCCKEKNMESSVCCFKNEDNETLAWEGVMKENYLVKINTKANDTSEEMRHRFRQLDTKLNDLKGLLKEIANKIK

activation at 10 µM (TRPM8) [%]	EC50 (TRPM8) [µM]	SMILES	tear secretion (guinea pig)
54 ± 14.4	–	CC1CC[C@@H](C(C)C)[C@H](n2cc(CCCCCCCCC(=O)O)nn2)C1 (stereo in doubt) [TZM-21, 9-(1-((1R,2S,5S)-2-isopropyl-5-methylcyclohexyl)-1H-1,2,3-triazole-4-yl)-nonanoic acid]	–
57.3 ± 15.2	–	CC1CC[C@@H](C(C)C)[C@H](n2cc(CCCCC#N)nn2)C1 (stereo in doubt) [TZM-22, 5-(1-((1R,2S,5S)-2-isopropyl-5-methylcyclohexyl)-1H-1,2,3-triazole-4-yl)pentanenitrile]	–
45.5 ± 11.2	–	CC(C)[C@@H]1CC[C@@H](C)C[C@H]1n1cc(CO)nn1 [TZM-1]	–
55.6 ± 26.2	–	CC(C)[C@@H]1CC[C@@H](C)C[C@H]1n1cc(-c2ccc(Oc3ccccc3)cc2)nn1 [TZM-2, 1-((1R,2S,5R)-2-isopropyl-5-methylcyclohexyl)-4-(4-phenoxyphenyl)-1H-1,2,3-triazole]	–
51.6 ± 14	–	CC(C)[C@@H]1CC[C@@H](C)C[C@H]1n1cc(-c2ccccc2)nn1 [TZM-3, 1-((1R,2S,5R)-2-isopropyl-5-methylcyclohexyl)-4-phenyl-1H-1,2,3-triazole]	–
85.1 ± 33	3.47 ± 1.34	COc1ccc(-c2cn([C@@H]3C[C@H](C)CC[C@H]3C(C)C)nn2)cc1 [TZM-4, 1-((1R,2S,5R)-2-isopropyl-5-methylcyclohexyl)-4-(4-methoxyphenyl)-1H-1,2,3-triazole]	–
50.1 ± 8.25	–	CC(C)[C@@H]1CC[C@@H](C)C[C@H]1n1cc(-c2ccc(-c3ccccc3)cc2)nn1 [TZM-5, 4-([1,1′-biphenyl]-4-yl)-1-((1R,2S,5R)-2-isopropyl-5-methylcyclohexyl)-1H-1,2,3-triazole]	–
45.1 ± 16.9	–	CC(C)[C@@H]1CC[C@@H](C)C[C@H]1n1cc(C2(O)CCCCC2)nn1 [TZM-6, 1-(1-((1R,2S,5R)-2-isopropyl-5-methylcyclohexyl)-1H-1,2,3-triazole-4-yl)cyclohexan-1-ol]	–
56.5 ± 29.7	–	CC(C)[C@@H]1CC[C@@H](C)C[C@H]1n1cc(-c2cccc3ccccc23)nn1 [TZM-8, 1-((1R,2S,5R)-2-isopropyl-5-methylcyclohexyl)-4-(naphthalene-1-yl)-1H-1,2,3-triazole]	–
59.1 ± 30.4	6.23 ± 3.18	CC(C)[C@@H]1CC[C@@H](C)C[C@H]1n1cc(-c2ccccn2)nn1 [TZM-9, 2-(1-((1R,2S,5R)-2-isopropyl-5-methylcyclohexyl)-1H-1,2,3-triazole-4-yl)pyridine]	–
45 ± 23.4	3.84 ± 2.36	CC(C)[C@@H]1CC[C@@H](C)C[C@H]1n1cc(CCc2ccccc2)nn1 [TZM-10, 1-((1R,2S,5R)-2-isopropyl-5-methylcyclohexyl)-4-phenethyl-1H-1,2,3-triazole]	–
46.5 ± 6.57	–	CC(C)[C@@H]1CC[C@@H](C)C[C@H]1n1cc(C(=O)c2ccc(Oc3ccccc3)cc2)nn1 [TZM-13, (1-((1R,2S,5R)-2-isopropyl-5-methylcyclohexyl)-1H-1,2,3-triazole-4-yl) (4-phenoxyphenyl)methanone]	–
42 ± 4.53	–	CC(C)[C@@H]1CC[C@@H](C)C[C@H]1n1cc(C(=O)c2ccc(-c3ccccc3)cc2)nn1 [TZM-17, [1,1′-biphenyl]-4-yl(1-((1R,2S,5R)-2-isopropyl-5-methylcyclohexyl)-1H-1,2,3-triazole-4-yl)methanone]	–
51.2 ± 16.1	–	CC(C)[C@@H]1CC[C@@H](C)C[C@H]1n1cc(-c2cccc(O)c2)nn1 [TZM-23, 3-[1-((1R,2S,5R)-2-isopropyl-5-methylcyclohexyl)-1H-1,2,3-triazole-4-yl]phenol]	–
37.8 ± 5.49	–	COc1cccc(-c2cn([C@@H]3C[C@H](C)CC[C@H]3C(C)C)nn2)c1 [TZM-24, 1-((1R,2S,5R)-2-isopropyl-5-methylcyclohexyl)-4-(3-methoxyphenyl)-1H-1,2,3-triazole]	–
45.1 ± 18.6	–	COCc1cn([C@@H]2C[C@H](C)CC[C@H]2C(C)C)nn1 [TZM-25, 1-((1R,2S,5R)-2-isopropyl-5-methylcyclohexyl)-4-(methoxymethyl)-1H-1,2,3-triazole]	–
50.9 ± 17.2	–	COc1ccc(C(O)c2cn([C@@H]3C[C@H](C)CC[C@H]3C(C)C)nn2)cc1OC (stereo partly drawn) [TZM-26, (3,4-dimethoxyphenyl) (1-((1R,2S,5R)-2-isopropyl-5-methylcyclohexyl)-1H-1,2,3-triazole-4-yl)methanol]	–

SMILES	activation at 10 µM (TRPM8) [%]	EC50 (TRPM8) [µM]	tear secretion (guinea pig)
CC1CCC(C(C)C)C(O)C1 (stereo not shown) [Menthol, reference compound]	101 ± 1.66	–	produces an increase in tear secretion
COc1ccc(C(=O)c2cn([C@@H]3C[C@H](C)CC[C@H]3C(C)C)nn2)cc1OC [TZM-11, (3,4-dimethoxyphenyl) (1-((1R,2S,5R)-2-isopropyl-5-methylcyclohexyl)-1H-1,2,3-triazole-4-yl)methanone]	53.5 ± 13.4	9.84 ± 3.29	–
CC(C)[C@@H]1CC[C@@H](C)C[C@H]1n1cc(C(=O)c2cccc(F)c2)nn1 [TZM-12, (3-fluorophenyl) (1-((1R,2S,5R)-2-isopropyl-5-methylcyclohexyl)-1H-1,2,3-triazole-4-yl)methanone]	57.9 ± 8.57	–	–
COc1ccc(C(=O)c2cn([C@@H]3C[C@H](C)CC[C@H]3C(C)C)nn2)c(OC)c1 [TZM-14, (2,4-dimethoxyphenyl) (1-((1R,2S,5R)-2-isopropyl-5-methylcyclohexyl)-1H-1,2,3-triazole-4-yl)methanone]	43.8 ± 4.22	–	–
COc1ccccc1C(=O)c1cn([C@@H]2C[C@H](C)CC[C@H]2C(C)C)nn1 [TZM-15, (1-((1R,2S,5R)-2-isopropyl-5-methylcyclohexyl)-1H-1,2,3-triazole-4-yl) (2-methoxyphenyl)methanone]	50.5 ± 4.83	–	–
COc1cc(OC)cc(C(=O)c2cn([C@@H]3C[C@H](C)CC[C@H]3C(C)C)nn2)c1 [TZM-16, (3,5-dimethoxyphenyl) (1-((1R,2S,5R)-2-isopropyl-5-methylcyclohexyl)-1H-1,2,3-triazole-4-yl)methanone]	44.5 ± 5.59	–	–
COc1ccc(C(=O)c2cn([C@@H]3C[C@H](C)CC[C@H]3C(C)C)nn2)cc1 [TZM-18, (1-((1R,2S,5R)-2-isopropyl-5-methylcyclohexyl)-1H-1,2,3-triazole-4-yl) (4-methoxyphenyl)methanone]	44.6 ± 5.62	–	–
COc1cccc(C(=O)c2cn([C@@H]3C[C@H](C)CC[C@H]3C(C)C)nn2)c1 [TZM-19, (1-((1R,2S,5R)-2-isopropyl-5-methylcyclohexyl)-1H-1,2,3-triazole-4-yl) (3-methoxyphenyl)methanone]	40.8 ± 9.01	–	–
CC(C)[C@@H]1CC[C@@H](C)C[C@H]1n1cc(C(=O)c2ccc(Cl)cc2)nn1 [TZM-20, (4-chlorophenyl) (1-((1R,2S,5R)-2-isopropyl-5-methylcyclohexyl)-1H-1,2,3-triazole-4-yl)methanone]	66.9 ± 17.5	–	–

— US10905679B2, “TRPM8 receptor agonist compounds and uses thereof” (UNIVERSIDAD MIGUEL HERNANDEZ DE ELCHE, priority 2016, dated 2021)
